# Experimental data taken from patent publication EP2518139A1, “Use of indirubin derivatives for producing pluripotent stem cells” (Universitätsklinikum Jena, priority 2011, dated 2012).
# “Also recorded” adds a separate entry of the source.
# Columns and labels:
# Hek293T cells = test: (iPS)-Colony formation and EMT in Hek293T; assay type: cell-based, human
# Procedure: Cell culture: HeLa and Hek293T were cultured in DMEM (PAA) containing 10% FCS (PAA) and 1% PS (PAA). HFF (human foreskin fibroblasts) were cultured in DMEM containing 15% FCS and 1%PS. Mouse embryonic fibroblasts were cultured in DMEM containing 10% NCS (LifeTechnologies) and 1% PS. The cells were maintained under 5% CO2 at 37°C in a humidified atmosphere. The cells were treated with various compounds as indicated in context. The images were taken at indicated time points using a Keyence digital-microskop BZ-800.
# (iPS)-Colony formation and spontaneous differentiation in HEK: 10^5 cells/well Hek 293T were seeded in a 12-well plate in 10% FCS with 1mL/well). Next day, the cells were treated with E738 (8µM). […] Afterwards, the cells were incubated further in the presence of 10% FCS and the medium was refreshed every 3 days. The spontaneous differentiation occurred after 10 days incubation.
# Smad1/5/8 = test: Immunoblot of p- and pan-Smad1/5/8 in HFF; assay type: cell-based, human; details: BMP2 (100ng/mL), 24h
# Procedure: Cell culture: HeLa and C2C12 were cultured in DMEM containing 10% FCS and 1 % PS. HFF was cultured in DMEM containing 15% FCS and 1 %PS. NIH 3T3 was cultured in DMEM containing 10% NCS and 1% PS. The cells were maintained unter 5% CO2 at 37°C in a humidified atmosphere. After 24h preincuabtion in serum-free medium, the cells were treated with various compounds and proteins as indicated in context. Transfection of siRNA oligonuleotide against Smurf1 was reported by Zhu et al (Zhu et al., nature 2006) and synthesized by riboxx and performed using riboxx®FECT reagent according to the manufacturer's instructions. 24h after transfection, the cells were treated with BMP (100ng/mL) and Compound as indicated before lysis.
# Western blot:: Cell extracts were homogenized in Urea-Lysis buffer (1mM EDTA,0.5% Triton X-100), 5mM NaF, 6M Urea, 1mM Na3VO4, 10µg/mL Pepstatin, 100µM PMSF and 3µg/mL Aprotinin in PBS). Enhanced chemiluminescence (ECL) Western blot analysis was performed. 20-40µg of total protein was resolved on 10% SDS-PAGE gels and immunoblotted with specific antibodies. Primary antibodies were incubated at a 1:1,000 dilution in TBS (pH 7.5) with 0.1% Tween-20 and 5% BSA/nonfat milk with gentle agitation overnight at 4°C. The proper secondary antibodies were incubated in TBS (pH 7.5) with 5% BSA/nonfat milk and 0.1 % Tween-20 at a 1:5,000 dilution for 1 h at room temperature. […]
smiles,measurement,setting,value
COc1ccc2c(c1)C(=C1Nc3ccccc3C1=NOCC(O)CO)C(=O)N2 (centres unmarked) [E738],cell mobility (EMT) and cell dedifferentiation,"Hek293T cells; Hek293T, 4 days treatment",enhances cell mobility (EMT) and induces cell dedifferentiation
same,iPS-like (embryonic stem cell-like) colony formation,"Hek293T cells; Hek 293T, E738 (8µM) 24h, floating cells washed and replated in 10% FCS for 3 days",embryonic stem cell-like colony appeared after 3 days; also recorded: iPS-like colonies were observed
same,EMT,"Hek293T cells; Hek 293T, E738 (8µM), 24h, 10% FCS",a clear EMT could be observed
same,concentration sufficient to reduce Smad1/5/8,Smad1/5/8,0.5 µM
same,p- and pan-Smad1/5/8,"Smad1/5/8; E738 0,5µM, 1µM and 5µM",decline of both
